Results on 16 molecules are retold here after patent publication US12122780B2, “Pyrimidinyl group-containing tricyclic compound serving as c-Met inhibitor” (JIANGSU AOSAIKANG PHARMACEUTICAL CO., LTD., priority 2019, dated 2024).

The IC50 is the concentration at which inhibition is half-maximal. Low values mean greater potency, high ones weaker potency.

For assay [1], the system named is Hs746T cells. The assay can be described thus: Hs746T cell proliferation experiment (CellTiter-Glo). Conditions: Homo sapiens, 96 h, 4 days. The class given is cell-based. As to the method:
DMEM medium was purchased from Gibco, and fetal bovine serum was purchased from Hyclone. Hs746T cell line was purchased from ATCC. Envision multi-label analyzer (PerkinElmer).
Hs746T cells were seeded in a 384-well plate, 50 μL of cell suspension per well, which contained 1500 Hs746T cells. The cell plate was placed in a carbon dioxide incubator for overnight culture.
The compounds to be tested were 3-fold diluted into 9 concentrations with Tecan, double-duplicate well experiment was set, and the final compound concentrations added to the 384-well cell plate were 1000 nM to 0.15 nM. The cell plate was cultured in a carbon dioxide incubator for 4 days.
After 4 days, 25 μL of Promega CellTiter-Glo reagent was added to each well of this cell plate, and incubated at room temperature for 10 minutes to stabilize the luminescence signal. Readings were taken using a PerkinElmer Envision multi-label analyzer.
The action curves of the compounds were automatically fitted using Xlfit software and the values of IC50 were calculated, High control was the values of DMSO-treated wells and Low control was the values of cell-free medium wells.
For orientation: ATP-based viability assays read luminescence as a measure of living cells.

Assay [2] deals with c-Met enzyme (Homo sapiens (Human), UniProt P08581). Description: c-Met enzyme activity inhibition (Promega c-Met Kinase Enzyme System, ADP-Glo). The class given is biochemical. Conditions: 10 μM ATP, 60 min, 30° C. How it is done: To detect the inhibitory effect of the compounds on c-Met enzyme activity.
The c-Met Kinase Enzyme System was purchased from Promega. Envision multi-label analyzer (PerkinElmer).
The kinase buffer in the kit was used to dilute the enzyme, substrate, ATP and inhibitor.
The compound to be tested was diluted 5-fold to the eighth concentration with a discharge gun, i.e., from 50 μM to […], with a final DMSO concentration of 5%, and double duplicate wells experiment was set. 1 μL of each concentration gradient of the inhibitor, 2 μL of c-Met enzyme (4 ng), 2 μL of a mixture of the substrate and ATP (10 μM ATP, 0.2 μg/μL poly E4Y1) were added to the microplate, and the final concentration gradient of the compound of 10 μM was diluted to 0.13 nM. The reaction system was placed at 30° C. and the reaction was carried out for 60 minutes. When the reaction was completed, 5 μL of ADP-Glo reagent was added to each well and the reaction was carried out at 30° C. for another 40 minutes, when the reaction was completed, 10 μL of kinase detection reagent was added to each well, then the reaction was carried out at 30° C. for still another 30 minutes, chemiluminescence was read by the PerkinElmer Envision multi-label analyzer with an integration time of 0.5 seconds.
Using the equation (Sample-Min)/(Max-Min)*100% to convert the original data to the inhibition rate, the IC50 value can be obtained by curve fitting with four parameters (obtained by log(inhibitor) vs. response in GraphPad Prism—Variable slope mode).
(ADP-Glo turns the ADP formed in a reaction into a luminescent signal.)

Assay [3] relates to EBC-1 cells. Description: EBC-1 cell proliferation experiment (CellTiter-Glo). In kind it is cell-based, human. Conditions: Homo sapiens, EBC-1, 72 h, 3 days. As to the method:
MEM medium, fetal bovine serum, penicillin/streptomycin antibiotics were purchased from Wisent. EBC-1 cell line was purchased from Nanjing COBIO Bioscience Co., LTD. Envision multi-label analyzer (PerkinElmer).
EBC-1 cells were seeded in a white 96-well plate, […] cell suspension per well, which contained 3000 EBC-1 cells. The cell plate was placed in a carbon dioxide incubator for overnight culture.
The compound to be tested was diluted 5-fold to the eighth concentration with a discharge gun, i.e., from 2 mM to […], and double duplicate wells experiment was set. 78 μL of the medium was added to the middle plate, then 2 μL per well of gradient diluted compound was transferred to the corresponding position on the middle plate, then mixed well and 20 μL per well was transferred to the cell plate. The cell plate was cultured in a carbon dioxide incubator for 3 days. Another cell plate was prepared and the signal values were read on the day of dosing as […] to be used in the data analysis. 25 μL of Promega CellTiter-Glo was added to each well of this cell plate, and incubated at room temperature for 10 minutes to stabilize the luminescence signal. Readings were taken using a PerkinElmer Envision multi-label analyzer.
25 μL of Promega CellTiter-Glo reagent was added to each well of this cell plate, and incubated at room temperature for 10 minutes to stabilize the luminescence signal. Readings were taken using a PerkinElmer Envision multi-label analyzer.
Using the equation (Sample-Min)/(Max-Min)*100% to convert the original data to the inhibition rate, the IC50 value can be obtained by curve fitting with four parameters (obtained by “log(inhibitor) vs. response in GraphPad Prism—Variable slope mode).

In assay [4] the test system is human lung cancer EBC-1 xenograft tumor. Description: In vivo drug efficacy, human lung cancer EBC-1 xenograft tumor in nude mice. Also noted: species or system BALB/c nude mice. Conditions: for Tumor volume: n = 6; for TGI (tumor growth inhibition rate) / TRTV/CRTV (relative tumor proliferation rate T/C): 25th day. How it is done: BALB/c nude mice, female, 6-8 weeks old, weighing about 18-20 grams, animals were raised in SPF-class animal rooms in IVC (independent air supply system, constant temperature and humidity) cages (3 per cage). All cages, bedding and water were disinfected before use. All animals had free access to standard certified commercial laboratory diets. A total of 36 mice purchased from Shanghai Lingchang Biotechnology Co., Ltd. were used for research. Each animal was inoculated with 0.1 mL (5×10^6 cells) of EBC-1 cells on the right back, when the average tumor volume reached 243 mm^3, the animals were randomly grouped and the administration was started. The test compound was orally administered daily, the dose of hydrochloride of compound 24 was 10 mg/kg, the two doses of hydrochloride of compound 25 were 10 mg/kg and 20 mg/kg, respectively, and the dose of hydrochloride of compound 29 was 10 mg/kg. The tumor diameter was measured with vernier calipers twice a week. The calculation formula of tumor volume was: V=0.5a×b^2, a and b represented the long diameter and short diameter of the tumor, respectively. The anti-tumor efficacy of the compound was evaluated by TGI (%) or the relative tumor proliferation rate T/C (%). Relative tumor proliferation rate T/C (%)=TRTV/CRTV×100% (TRTV: average RTV in the treatment group; CRTV: average RTV in the negative control group). The relative tumor volume (RTV) was calculated according to the results of tumor measurement, the calculation formula was RTV=Vt/V0, wherein V0 was the tumor volume measured at the time of the grouping administration (i.e. D0), Vt was the tumor volume at a certain measurement, and TRTV and CRTV were taken on the same day. TGI (%) reflected the tumor growth inhibition rate. TGI (%)=[(1−(average tumor volume of a certain treatment group after administration-average tumor volume of the treatment group at the beginning of administration))/(average tumor volume of the solvent control group after the administration-average tumor volume of the solvent control group at the beginning of the administration)]×100%. Statistical analysis was performed based on RTV data at the end of the experiment, and SPSS software was used for analysis.
In general terms: Xenograft models place foreign cells or tissue in a host animal.

Where [5] appears, read: 10 mg/kg oral daily (stopped after 15 days), day 18, mean ± standard error.
Where [6] appears, read: 10 mg/kg oral daily (stopped after 15 days), day 21, mean ± standard error.
Where [7] appears, read: 10 mg/kg oral daily (stopped after 15 days), day 25, mean ± standard error.
Setting [8] is: 10 mg/kg oral daily (stopped after 15 days), day 27, mean ± standard error.
[9] abbreviates: 10 mg/kg oral daily, day 0, mean ± standard error.
[10] abbreviates: 10 mg/kg oral daily, day 4, mean ± standard error.
Setting [11] is: 10 mg/kg oral daily, day 7, mean ± standard error.
The mark [12] stands for this setting: 10 mg/kg oral daily, day 11, mean ± standard error.
Setting [13] is: 10 mg/kg oral daily, day 14, mean ± standard error.

Counter-ions that a name gives are not always drawn.

Sequence of c-Met enzyme (P08581 956-1390): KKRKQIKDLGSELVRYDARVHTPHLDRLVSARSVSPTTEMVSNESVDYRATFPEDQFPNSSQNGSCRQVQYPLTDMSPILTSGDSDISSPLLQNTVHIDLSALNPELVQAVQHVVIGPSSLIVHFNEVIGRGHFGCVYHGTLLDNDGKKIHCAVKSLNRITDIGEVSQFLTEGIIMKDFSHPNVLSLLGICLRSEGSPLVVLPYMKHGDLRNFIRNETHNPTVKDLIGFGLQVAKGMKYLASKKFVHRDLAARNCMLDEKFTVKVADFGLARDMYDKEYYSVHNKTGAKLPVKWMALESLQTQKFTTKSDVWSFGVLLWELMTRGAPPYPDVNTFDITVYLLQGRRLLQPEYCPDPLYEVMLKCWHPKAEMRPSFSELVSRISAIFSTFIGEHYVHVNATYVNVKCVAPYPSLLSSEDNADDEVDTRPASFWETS

As to `COC1(COc2cnc(-c3cccc(Cn4c(=O)ccn5c6cc(C#N)ccc6nc45)c3)nc2)CCN(C)CC1` [Hydrochloride of compound 36], the IC50 in assay [1] amounted to 2.7 nM; in assay [2], 7.38 nM; in assay [3] it was 6.13 nM.
Consider `CCN1CCC(COc2cnc(-c3cccc(Cn4c(=O)ccn5c6cc(C#N)ccc6nc45)c3)nc2)CC1` [Hydrochloride of compound 24], for which the Tumor volume in assay [4] (setting [5]) came to 123 ± 31 mm^3; in assay [4] (setting [6]), 164 ± 45 mm^3; in assay [4] (setting [7]), 257 ± 72 mm^3; in assay [4] (10 mg/kg oral daily (stopped after 15 days), day 25, mean ± standard error, listed as hydrochloride of compound 24), 257 mm^3; in assay [4] (setting [8]) it was 366 ± 92 mm^3; in assay [4] (setting [9]) it was 244 ± 23 mm^3. Besides, the Tumor volume in assay [4] (setting [10]) worked out at 270 ± 22 mm^3; in assay [4] (setting [11]) it was 224 ± 16 mm^3; in assay [4] (setting [12]) it was 142 ± 24 mm^3; in assay [4] (setting [13]), 120 ± 25 mm^3. In addition, the “TGI (tumor growth inhibition rate)” value in assay [4] (10 mg/kg oral daily) is recorded as 99.3%. Further, the “TRTV/CRTV (relative tumor proliferation rate T/C)” value in assay [4] (10 mg/kg oral daily) came out at 13.7%. The IC50 in assay [2] amounted to 2.03 nM; in assay [3] it was 4.26 nM.
Take `COC1(COc2cnc(-c3cccc(Cn4c(=O)ccn5c6cc(C#N)ccc6nc45)c3)nc2)CCN(C(C)C)CC1` [Hydrochloride of compound 38]: the IC50 worked out at 3.2 nM in assay [1], 7.65 nM in assay [2] and 8.51 nM in assay [3].
On to `CCN1CCC(COc2cnc(-c3ccc(F)c(Cn4c(=O)ccn5c6cc(C#N)ccc6nc45)c3)nc2)CC1` [Hydrochloride of compound 29], for which the Tumor volume in assay [4] (setting [5]) is reported as 218 ± 50 mm^3; in assay [4] (setting [6]), 243 ± 56 mm^3; in assay [4] (setting [7]) it was 337 ± 83 mm^3; in assay [4] (10 mg/kg oral daily (stopped after 15 days), day 25, mean ± standard error, listed as hydrochloride of compound 29), 337 mm^3; in assay [4] (setting [8]), 412 ± 100 mm^3; in assay [4] (setting [9]), 243 ± 17 mm^3. Besides, the Tumor volume was 299 ± 13 mm^3 in assay [4] (setting [10]), 318 ± 21 mm^3 in assay [4] (setting [11]), 294 ± 27 mm^3 in assay [4] (setting [12]) and 205 ± 37 mm^3 in assay [4] (setting [13]). The “TGI (tumor growth inhibition rate)” value in assay [4] (10 mg/kg oral daily) is listed as 94.8%. Besides, the “TRTV/CRTV (relative tumor proliferation rate T/C)” value in assay [4] (10 mg/kg oral daily) is given as 16.2%. The IC50 in assay [2] came out at 6.31 nM; in assay [3], 10.3 nM.
For `CC(C)N1CCC(COc2cnc(-c3cccc(Cn4c5c(ccc4=O)-c4cc(C#N)ccc4C5=O)c3)nc2)CC1` [Hydrochloride of compound 19], the IC50 came to 13.4 nM in assay [2] and 14.1 nM in assay [3].
With `CC(C)N1CCC(O)(COc2cnc(-c3cccc(Cn4c(=O)ccn5c6cc(C#N)ccc6nc45)c3)nc2)CC1` [Hydrochloride of compound 37], the IC50 was found to be 2.5 nM in assay [1], 4.26 nM in assay [2] and 4.91 nM in assay [3].
In the same order, the values of `N#Cc1ccc2nc3n(Cc4cccc(-c5ncc(OCC6CCN(CCO)CC6)cn5)c4)c(=O)ccn3c2c1` [Hydrochloride of compound 30] are 2 nM, 7.48 nM and 7.09 nM.
For the molecule `CCN1CCC(COc2cnc(-c3cccc(Cn4c5c(ccc4=O)-c4cc(C#N)ccc4C5=O)c3)nc2)CC1` [Hydrochloride of compound 12], the IC50 in assay [2] came out at 5.06 nM; in assay [3], 6.66 nM.
Turning to `CN1CCC(O)(COc2cnc(-c3cccc(Cn4c(=O)ccn5c6cc(C#N)ccc6nc45)c3)nc2)CC1` [Hydrochloride of compound 34], the values for the IC50 in assay [1], in assay [2] and in assay [3] were 2.6 nM, 2.82 nM and 4.91 nM, respectively.
On to `CN1CCC(COc2cnc(-c3cccc(Cn4c(=O)c(F)cc5c6cc(C#N)ccc6sc54)c3)nc2)CC1` [Hydrochloride of compound 8], for which the IC50 was 21.5 nM in assay [2] and 36 nM in assay [3].
The matching figures for `CN1CCC(COc2cnc(-c3cccc(Cn4c(=O)ccc5c4nc4ccc(C#N)cn45)c3)nc2)CC1` [Hydrochloride of compound 23]: 6.46 nM and 16.8 nM.
The matching figures for `CN1CCC(COc2cnc(-c3cccc(Cn4c5c(ccc4=O)-c4cc(C#N)ccc4C5=O)c3)nc2)CC1` [Formate of compound 2]: 10 nM and 5.79 nM.
The matching figures for `CN1CCC(COc2cnc(-c3cccc(Cn4c(=O)ccn5c6cc(C#N)ccc6nc45)c3)nc2)CC1` [Hydrochloride of compound 11]: 3.26 nM and 6.99 nM.
Regarding `CN1CCC(COc2cnc(-c3cccc(Cn4c(=O)ccn5c6ccc(C#N)cc6nc45)c3)nc2)CC1` [Hydrochloride of compound 9], the IC50 was 21.8 nM in assay [2] and 31.8 nM in assay [3].
On to `CN1CCC(COc2cnc(-c3cccc(Cn4c(=O)ccc5c6cc(C#N)ccc6sc54)c3)nc2)CC1` [Hydrochloride of compound 6], for which the IC50 is 24.9 nM in assay [2] and 62.8 nM in assay [3].
In the case of `COC1(COc2cnc(-c3cccc(Cn4c(=O)ccn5c6cc(C#N)ccc6nc45)c3)nc2)CCN(CCO)CC1` [Hydrochloride of compound 41], the values for the IC50 in assay [1], in assay [2] and in assay [3] were 2.3 nM, 6.63 nM and 5.08 nM, respectively.
